Test results: PubChem BioAssay AID192 (DTP/NCI, 2004)
Values joined by “and” are separate entries in the source; they are usually repeats but may differ in a detail not shown here. Identical values can stand only once. Toxic doses and inconclusive results are not listed.

System: BDF1 mice, B16 melanoma ip, median survival T/C
Test: NCI In Vivo Anticancer Drug Screen. Data for tumor model B16 Melanoma (intraperitoneal) in B6D2F1 (BDF1) mice
Details: endpoint: median survival time, higher = longer survival
Outline: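 Read-out: survival or tumor size, given as treated/control ratio. Controls received vehicle only; animals bore transplantable tumors.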

[1] = dose: 100.0 mg/kg/injection, schedule: Q01DX009 (ip), vehicle: saline with Tween-80
[2] = dose: 200.0 mg/kg/injection, schedule: Q01DX009 (ip), vehicle: saline with Tween-80
[3] = dose: 50.0 mg/kg/injection, schedule: Q01DX009 (ip), vehicle: saline with Tween-80
[4] = dose: 100.0 mg/kg/injection, schedule: Q01DX009 (ip), vehicle: gum acacia
[5] = dose: 50.0 mg/kg/injection, schedule: Q01DX009 (ip), vehicle: Klucel (hydroxypropylcellulose) (HPC)
[6] = dose: 100.0 mg/kg/injection, schedule: Q01DX009 (ip), vehicle: Klucel (hydroxypropylcellulose) (HPC)
[7] = dose: 25.0 mg/kg/injection, schedule: Q01DX009 (ip), vehicle: Klucel (hydroxypropylcellulose) (HPC)
[8] = dose: 200.0 mg/kg/injection, schedule: Q01DX009 (ip), vehicle: Klucel (hydroxypropylcellulose) (HPC)
[9] = dose: 12.5 mg/kg/injection, schedule: Q04DX003 (ip), vehicle: Klucel (hydroxypropylcellulose) (HPC)
[10] = dose: 25.0 mg/kg/injection, schedule: Q04DX003 (ip), vehicle: Klucel (hydroxypropylcellulose) (HPC)
[11] = dose: 400.0 mg/kg/injection, schedule: Q01DX009 (ip), vehicle: Klucel (hydroxypropylcellulose) (HPC)
[12] = dose: 12.5 mg/kg/injection, schedule: Q01DX009 (ip), vehicle: Klucel (hydroxypropylcellulose) (HPC)

## COC1CCCCC1SCSC1CCCCC1OC (centres undefined)
[1]
  T/C: 105 % of control
[2]
  T/C: 102 % of control
dose: 400.0 mg/kg/injection, schedule: Q01DX009 (ip), vehicle: saline with Tween-80
  T/C: 105 % of control

## CC(NC(=O)CN(C)C(=O)OCc1ccccc1)C(=O)O (centres undefined)
[3]
  T/C: 99 % of control
[1]
  T/C: 98 % of control
[2]
  T/C: 97 % of control

## OC(CCCCl)CC(O)(C(F)(F)F)C(F)(F)F (centres undefined)
[3]
  T/C: 111 % of control
dose: 50.0 mg/kg/injection, schedule: Q04DX003 (ip), vehicle: saline with Tween-80
  T/C: 112 % of control
[1]
  T/C: 102 % of control
dose: 100.0 mg/kg/injection, schedule: Q04DX003 (ip), vehicle: saline with Tween-80
  T/C: 115 % of control
[2]
  T/C: 108 % of control
dose: 200.0 mg/kg/injection, schedule: Q04DX003 (ip), vehicle: saline with Tween-80
  T/C: 120 % of control

## CCc1ccc(NC(=O)Nc2ccccc2OC)cc1
[4]
  T/C: 105 % of control
dose: 200.0 mg/kg/injection, schedule: Q01DX009 (ip), vehicle: gum acacia
  T/C: 98 % of control
dose: 400.0 mg/kg/injection, schedule: Q01DX009 (ip), vehicle: gum acacia
  T/C: 101 % of control

## CC(C)NC(=O)N(c1ccccc1)C(C)C
[5]
  T/C: 105 % of control
[6]
  T/C: 103 % of control

## O=NN(CCBr)C(=O)NCCBr
dose: 50.0 mg/kg/injection, schedule: Q01DX009 (ip), vehicle: gum acacia
  T/C: 107 % of control
dose: 66.0 mg/kg/injection, schedule: Q01DX009 (ip), vehicle: gum acacia
  T/C: 109 % of control
[4]
  T/C: 116 % of control

## O=C(O)[C@@H]1[C@H]2C[C@H]3c4[nH]c5ccccc5c4CCN3C[C@@H]2CC[C@@H]1O
[7]
  T/C: 89 % of control
[5]
  T/C: 88 % of control
[6]
  T/C: 97 % of control
[8]
  T/C: 92 % of control

## CC(Cl)CN(CC(C)Cl)C(=O)OCC(NC(=O)OCc1ccccc1)C(=O)OCc1ccccc1 (centres undefined)
[9]
  T/C: 86 % of control
[10]
  T/C: 86 % of control
dose: 50.0 mg/kg/injection, schedule: Q04DX003 (ip), vehicle: Klucel (hydroxypropylcellulose) (HPC)
  T/C: 86 % of control
[6]
  T/C: 97 % of control
[8]
  T/C: 97 % of control
dose: 200.0 mg/kg/injection, schedule: Q04DX003 (ip), vehicle: Klucel (hydroxypropylcellulose) (HPC)
  T/C: 93 % of control
[11]
  T/C: 88 % of control

## Cc1cc(NCCCCCCNc2cc(C)nc3ccc(N)cc23)c2cc(N)ccc2n1
dose: 2.25 mg/kg/injection, schedule: Q01DX009 (ip), vehicle: saline with Tween-80
  T/C: 104 % of control
dose: 4.5 mg/kg/injection, schedule: Q01DX009 (ip), vehicle: saline with Tween-80
  T/C: 102 % of control
dose: 9.0 mg/kg/injection, schedule: Q01DX009 (ip), vehicle: saline with Tween-80
  T/C: 104 % of control
dose: 18.0 mg/kg/injection, schedule: Q01DX009 (ip), vehicle: saline with Tween-80
  T/C: 122 % of control

## Nc1n[nH]c(=O)[nH]1
[7]
  T/C: 107 % of control
[5]
  T/C: 98 % of control
[6]
  T/C: 109 % of control
[8]
  T/C: 107 % of control

## CNc1nc(N)nc(Nc2ccc(I)cc2)c1N=O
[7]
  T/C: 99 % of control
[5]
  T/C: 90 % of control
[3]
  T/C: 94 % of control
[6]
  T/C: 96 % of control
[1]
  T/C: 94 % of control
[2]
  T/C: 94 % of control
[11]
  T/C: 123 % of control

## Nc1ccc(N=Nc2ccccc2)c(N)c1
dose: 25.0 mg/kg/injection, schedule: Q01DX009 (ip), vehicle: saline with Tween-80
  T/C: 106 % of control
[3]
  T/C: 93 % of control and 101 % of control
[6]
  T/C: 101 % of control
[1]
  T/C: 95 % of control and 101 % of control
[8]
  T/C: 99 % of control
[2]
  T/C: 87 % of control and 90 % of control

## C=CCOCC(O)CN(C)C1CCCCC1 (centres undefined)
dose: 12.5 mg/kg/injection, schedule: Q04DX003 (ip), vehicle: saline
  T/C: 121 % of control
dose: 25.0 mg/kg/injection, schedule: Q04DX003 (ip), vehicle: saline
  T/C: 100 % of control
dose: 50.0 mg/kg/injection, schedule: Q04DX003 (ip), vehicle: saline
  T/C: 100 % of control and 104 % of control

## NCC(=O)c1ccc(O)c(O)c1
dose: 100.0 mg/kg/injection, schedule: Q01DX009 (ip), vehicle: saline
  T/C: 100 % of control
dose: 200.0 mg/kg/injection, schedule: Q01DX009 (ip), vehicle: saline
  T/C: 110 % of control
dose: 400.0 mg/kg/injection, schedule: Q01DX009 (ip), vehicle: saline
  T/C: 120 % of control

## Nc1nc(Br)c2ccccc2c1-c1ccc([N+](=O)[O-])cc1
[2]
  T/C: 91 % of control

## COc1ccccc1N1CCCSC1=Nc1ccccc1
[12]
  T/C: 98 % of control
[7]
  T/C: 95 % of control
[5]
  T/C: 95 % of control
[6]
  T/C: 100 % of control
[8]
  T/C: 100 % of control

## C=C(CCC(C(=O)O)C1CCC2(C)C3=C(CCC12C)C1(C)CCC(O)C(C)(C)C1CC3)C(C)C (centres undefined)
dose: 20.0 mg/kg/injection, schedule: Q01DX009 (sc), vehicle: steriod suspending solution
  T/C: 98 % of control
dose: 40.0 mg/kg/injection, schedule: Q01DX009 (sc), vehicle: steriod suspending solution
  T/C: 105 % of control
dose: 80.0 mg/kg/injection, schedule: Q01DX009 (sc), vehicle: steriod suspending solution
  T/C: 101 % of control
dose: 160.0 mg/kg/injection, schedule: Q01DX009 (sc), vehicle: steriod suspending solution
  T/C: 92 % of control
dose: 165.0 mg/kg/injection, schedule: Q01DX009 (sc), vehicle: steriod suspending solution
  T/C: 94 % of control
dose: 250.0 mg/kg/injection, schedule: Q01DX009 (sc), vehicle: steriod suspending solution
  T/C: 102 % of control

## CN(C)C(=O)c1cccc(COc2ccc(N3C(N)=NC(N)=NC3(C)C)cc2Cl)c1
dose: 1.56 mg/kg/injection, schedule: Q01DX009 (ip), vehicle: saline
  T/C: 120 % of control
dose: 3.13 mg/kg/injection, schedule: Q01DX009 (ip), vehicle: saline
  T/C: 120 % of control
dose: 6.25 mg/kg/injection, schedule: Q01DX009 (ip), vehicle: saline
  T/C: 117 % of control
dose: 12.5 mg/kg/injection, schedule: Q01DX009 (ip), vehicle: saline
  T/C: 104 % of control and 105 % of control
dose: 25.0 mg/kg/injection, schedule: Q01DX009 (ip), vehicle: saline
  T/C: 104 % of control and 117 % of control
dose: 50.0 mg/kg/injection, schedule: Q01DX009 (ip), vehicle: saline
  T/C: 100 % of control

## Cc1ccc(S(=O)(=O)N/N=C(\C(=O)O)c2ccccc2)cc1
[12]
  T/C: 95 % of control
[7]
  T/C: 87 % of control and 88 % of control
[5]
  T/C: 91 % of control
[6]
  T/C: 89 % of control

## CN(C)c1ccc2c(c1)C(Br)c1ccccc1-2 (centres undefined)
dose: 6.25 mg/kg/injection, schedule: Q04DX003 (ip), vehicle: Klucel (hydroxypropylcellulose) (HPC)
  T/C: 102 % of control
[9]
  T/C: 105 % of control
[10]
  T/C: 97 % of control

## CC1CCCN(C)C1 (centres undefined)
[5]
  T/C: 117 % of control
[6]
  T/C: 120 % of control

## CCCCCCCCCC(=O)CCCCCC
[6]
  T/C: 90 % of control
[8]
  T/C: 89 % of control

## c1ccc(C[P+](c2ccccc2)(c2ccccc2)c2ccccc2)cc1
dose: 2.5 mg/kg/injection, schedule: Q01DX009 (ip), vehicle: other
  T/C: 92 % of control
dose: 5.0 mg/kg/injection, schedule: Q01DX009 (ip), vehicle: other
  T/C: 94 % of control
dose: 10.0 mg/kg/injection, schedule: Q01DX009 (ip), vehicle: other
  T/C: 94 % of control
dose: 20.0 mg/kg/injection, schedule: Q01DX009 (ip), vehicle: other
  T/C: 89 % of control

## Cc1ccc(NC(=O)COc2ccc(Cl)cc2Cl)c([N+](=O)[O-])c1
dose: 25.0 mg/kg/injection, schedule: Q01DX009 (ip), vehicle: carboxymethylcellulose (CMC)
  T/C: 100 % of control
dose: 50.0 mg/kg/injection, schedule: Q01DX009 (ip), vehicle: carboxymethylcellulose (CMC)
  T/C: 100 % of control
[6]
  T/C: 88 % of control
dose: 100.0 mg/kg/injection, schedule: Q01DX009 (ip), vehicle: carboxymethylcellulose (CMC)
  T/C: 100 % of control

## CCCCCCCCCCCCCCCCCC(=O)OCC(=O)OCC(=O)[C@]1(O)Cc2c(O)c3c(c(O)c2[C@@H](OC2CC(N)C(O)C(C)O2)C1)C(=O)c1c(OC)cccc1C3=O (some centres undefined)
dose: 3.75 mg/kg/injection, schedule: Q01DX001 (ip), vehicle: water
  T/C: 236 % of control
dose: 7.5 mg/kg/injection, schedule: Q01DX001 (ip), vehicle: water
  T/C: 287 % of control and 289 % of control
dose: 15.0 mg/kg/injection, schedule: Q01DX001 (ip), vehicle: water
  T/C: 289 % of control
dose: 30.0 mg/kg/injection, schedule: Q01DX001 (ip), vehicle: water
  T/C: 154 % of control and 289 % of control (2×)

## CC[C@@]1(O)C(=O)OCc2c1cc1n(c2=O)Cc2cc3cc(OC)ccc3nc2-1
dose: 0.39 mg/kg/injection, schedule: Q01DX009 (ip), vehicle: other
  T/C: 157 % of control
dose: 0.79 mg/kg/injection, schedule: Q01DX009 (ip), vehicle: other
  T/C: 174 % of control

## CCNC(Cc1ccccc1)c1ccc(OC)cc1 (centres undefined)
[12]
  T/C: 106 % of control
[7]
  T/C: 100 % of control
[5]
  T/C: 113 % of control
